Patent US20160002248A1, “GLS1 INHIBITORS FOR TREATING DISEASE” (Board of Regents, The University of Texas System, priority 2014, published 2016)

Legend:
[1] = target: T1, purified recombinant human GAC (GLS1) (Homo sapiens, UniProt O94925); assay: GLS1 Enzymatic Activity Assay (dual-coupled enzymatic assay); assay type: biochemical
T1 sequence (O94925 55-598 isoform O94925-3 limits assumed): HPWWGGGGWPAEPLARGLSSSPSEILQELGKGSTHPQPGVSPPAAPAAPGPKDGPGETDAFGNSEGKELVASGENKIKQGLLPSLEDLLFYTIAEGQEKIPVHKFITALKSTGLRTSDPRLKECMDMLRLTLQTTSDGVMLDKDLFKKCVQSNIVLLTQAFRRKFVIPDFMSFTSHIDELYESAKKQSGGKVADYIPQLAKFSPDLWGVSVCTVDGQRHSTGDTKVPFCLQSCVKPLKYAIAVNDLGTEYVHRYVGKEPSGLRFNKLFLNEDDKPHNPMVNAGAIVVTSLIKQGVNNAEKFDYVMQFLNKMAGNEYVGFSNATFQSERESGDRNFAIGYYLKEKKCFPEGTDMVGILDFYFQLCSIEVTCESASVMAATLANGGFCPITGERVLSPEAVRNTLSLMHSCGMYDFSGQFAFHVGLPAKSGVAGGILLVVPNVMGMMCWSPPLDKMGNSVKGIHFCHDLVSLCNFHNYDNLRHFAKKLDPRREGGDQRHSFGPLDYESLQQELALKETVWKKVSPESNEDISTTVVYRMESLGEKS
How it was run: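 In this coupled fluorometric format, phosphate-activated GAC (2 nM, 50 mM phosphate) is pre-exposed to compound for 10 min before 1 mM glutamine addition. Product is tracked as resorufin (530/590 nm) over time or at 20 min, and potency is derived by logistic fitting.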

[2] = system: A549 cells; assay: Proliferation Assay (A549 cell viability, Cell Titer Fluor); assay type: cell-based; settings: Homo sapiens, 72 hours
How it was run: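 Compound exposure lasted 72 h (final DMSO 0.5% v/v) on A549 cells plated at 1000 cells/well one day earlier. Cell Titer Fluor added, 30 min at 37 °C, fluorescence read; EC50 derived by four-parameter logistic curve fitting.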

| IC50 [1] [nM] | EC50 [2] [nM] | SMILES |
| --- | --- | --- |
| < 100 | 100 to 500 | Cc1ccc(CNC(=O)c2cn(CCCCc3cc4c(-c5cccc(OC(F)(F)F)c5)c(C5CC5)[nH]c4nn3)nn2)cn1 [Example 170, 1-(4-{6-cyclopropyl-5-[3-(trifluoromethoxy)phenyl]-7H-pyrrolo[2,3-c]pyridazin-3-yl}butyl)-N-[(6-methylpyridin-3-yl)methyl]-1H-1,2,3-triazole-4-carboxamide] |
| < 100 | 500 to 5000 | O=C(NCc1cccc(OCC(F)(F)F)n1)c1cn(CCCCc2cc3cc(C4CC4)[nH]c3nn2)nn1 [Example 43, 1-(4-{6-cyclopropyl-7H-pyrrolo[2,3-c]pyridazin-3-yl}butyl)-N-{[6-(2,2,2-trifluoroethoxy)pyridin-2-yl]methyl}-1H-1,2,3-triazole-4-carboxamide] |
| < 100 | 500 to 5000 | COc1cncc(CNC(=O)c2cn(CCCCc3cc4cc(C5CC5)[nH]c4nn3)nn2)c1 [Example 48, 1-(4-{6-cyclopropyl-7H-pyrrolo[2,3-c]pyridazin-3-yl}butyl)-N-[(5-methoxypyridin-3-yl)methyl]-1H-1,2,3-triazole-4-carboxamide] |
| 500 to 5000 | > 5000 | O=C(NCc1ccccn1)c1cn(CCCCc2cc3c(-c4ccccc4)c[nH]c3nn2)nn1 [Example 20, 1-(4-(5-phenyl-7H-pyrrolo[2,3-c]pyridazin-3-yl)butyl)-N-(pyridin-2-ylmethyl)-1H-1,2,3-triazole-4-carboxamide] |
| < 100 | < 100 | CC(C)(C)C(=O)N1CC(c2cc3cc(CCCCn4cc(C(=O)NCc5cc(OC(F)(F)F)ccc5F)nn4)nnc3[nH]2)C1 [Example 192, 1-(4-(6-[1-(2,2-dimethylpropanoyl)azetidin-3-yl]-7H-pyrrolo[2,3-c]pyridazin-3-yl}butyl)-N-{[2-fluoro-5-(trifluoromethoxy)phenyl]methyl}-1H-1,2,3-triazole-4-carboxamide] |
| < 100 | 500 to 5000 | CNC(=O)c1cccc(-c2c(C3CC3)[nH]c3nnc(CCCCn4cc(C(=O)NCc5ccc(C)nc5)nn4)cc23)c1 [Example 158, 1-(4-{6-cyclopropyl-5-[3-(methylcarbamoyl)phenyl]-7H-pyrrolo[2,3-c]pyridazin-3-yl}butyl)-N-[(6-methylpyridin-3-yl)methyl]-1H-1,2,3-triazole-4-carboxamide] |
| < 100 | < 100 | CC(C)(C)OC(=O)N1CC(c2cc3cc(CCCCn4cc(C(=O)NCc5cc(C(F)(F)F)ccn5)nn4)nnc3[nH]2)C1 [Example 194, tert-butyl 3-(3-{4-[4-({[4-(trifluoromethyl)pyridin-2-yl]methyl}carbamoyl)-1H-1,2,3-triazol-1-yl]butyl}-7H-pyrrolo[2,3-c]pyridazin-6-yl)azetidine-1-carboxylate] |
| 100 to 500 | 500 to 5000 | CCOC(=O)c1nnc(CCCCc2cc3cc(C4CC4)[nH]c3nn2)s1 [Example 115, ethyl 5-(4-{6-cyclopropyl-7H-pyrrolo[2,3-c]pyridazin-3-yl}butyl)-1,3,4-thiadiazole-2-carboxylate] |
| 100 to 500 | 500 to 5000 | O=C(NCc1cccc(OC(F)(F)F)c1)c1cn(CCCCc2cc3cc[nH]c3nn2)nn1 [Example 27, 1-(4-{7H-pyrrolo[2,3-c]pyridazin-3-yl}butyl)-N-{[3-(trifluoromethoxy)phenyl]methyl}-1H-1,2,3-triazole-4-carboxamide] |
| 500 to 5000 | > 5000 | Cc1ccc(CNC(=O)c2cn(CCCCc3cc4cc(C5CCNCC5)[nH]c4nn3)nn2)cn1 [Example 98, N-[(6-methylpyridin-3-yl)methyl]-1-{4-[6-(piperidin-4-yl)-7H-pyrrolo[2,3-c]pyridazin-3-yl]butyl}-1H-1,2,3-triazole-4-carboxamide] |
| < 100 | < 100 | O=C(NCc1cc(OC(F)(F)F)ccc1F)c1cn(CCCCc2cc3cc(C4CN(C(=O)C5(C(F)(F)F)CC5)C4)[nH]c3nn2)nn1 [Example 225, N-{[2-fluoro-5-(trifluoromethoxy)phenyl]methyl}-1-[4-(6-{1-[1-(trifluoromethyl)cyclopropane-carbonyl]azetidin-3-yl}-7H-pyrrolo[2,3-c]pyridazin-3-yl)butyl]-1H-1,2,3-triazole-4-carboxamide] |
| < 100 | 100 to 500 | CC(C)(O)c1ccc(CNC(=O)c2cn(CCCCc3cc4c(-c5ccc(OC(F)(F)F)cc5)c(C5CC5)[nH]c4nn3)nn2)cn1 [Example 164, 1-(4-{6-cyclopropyl-5-[4-(trifluoromethoxy)phenyl]-7H-pyrrolo[2,3-c]pyridazin-3-yl}butyl)-N-{[6-(2-hydroxypropan-2-yl)pyridin-3-yl]methyl}-1H-1,2,3-triazole-4-carboxamide] |
| 100 to 500 | > 5000 | O=C(Cc1ccccc1)Nc1nnc(CCCCc2cnc3[nH]ccc3c2)s1 [Example 24, N-(5-(4-(1H-pyrrolo[2,3-b]pyridin-5-yl)butyl)-1,3,4-thiadiazol-2-yl)-2-phenylacetamide] |
| 100 to 500 | 500 to 5000 | Cc1c(C2CC2)[nH]c2nnc(CCCCn3cc(C(=O)NCc4ccccn4)nn3)cc12 [Example 109, 1-(4-(6-cyclopropyl-5-methyl-7H-pyrrolo[2,3-c]pyridazin-3-yl)butyl)-N-(pyridin-2-ylmethyl)-1H-1,2,3-triazole-4-carboxamide] |
| < 100 | 500 to 5000 | Cc1ccc(CNC(=O)c2cn(CCCCc3cc4c(C5=CCN(C(=O)OC(C)(C)C)CC5)c(C5CC5)[nH]c4nn3)nn2)cn1 [Example 198, tert-butyl 4-(6-cyclopropyl-3-[4-(4-{[(6-methylpyridin-3-yl)methyl]carbamoyl}-1H-1,2,3-triazol-1-yl)butyl]-7H-pyrrolo[2,3-c]pyridazin-5-yl}-1,2,3,6-tetrahydropyridine-1-carboxylate] |
| < 100 | < 100 | Cc1ccc(CNC(=O)c2cn(CC(F)CCc3cc4cc(-c5ccccc5F)[nH]c4nn3)nn2)cn1 (stereo not drawn) [Example 241, 1-(2-fluoro-4-(6-(2-fluorophenyl)-7H-pyrrolo[2,3-c]pyridazin-3-yl)butyl)-N-((6-methylpyridin-3-yl)methyl)-1H-1,2,3-triazole-4-carboxamide] |
| < 100 | 100 to 500 | CC(C)(C)OC(=O)N1CC(c2cc3cc(CCCCn4cc(C(=O)NCc5ccc(C(F)(F)F)cn5)nn4)nnc3[nH]2)C1 [Example 201, tert-butyl 3-(3-{4-[4-({[5-(trifluoromethyl)pyridin-2-yl]methyl)carbamoyl)-1H-1,2,3-triazol-1-yl]butyl}-7H-pyrrolo[2,3-c]pyridazin-6-yl)azetidine-1-carboxylate] |
| < 100 | < 100 | O=C(NCc1cc(OC(F)(F)F)ccc1F)c1cn(CCCCc2cc3cc(C4CN(C(=O)OC5CCC5)C4)[nH]c3nn2)nn1 [Example 233, cyclobutyl 3-(3-{4-[4-({[2-fluoro-5-(trifluoromethoxy)phenyl]methyl}carbamoyl)-1H-1,2,3-triazol-1-yl]butyl}-7H-pyrrolo[2,3-c]pyridazin-6-yl)azetidine-1-carboxylate] |
| < 100 | 100 to 500 | O=C(NCc1ccccn1)c1cn(CCCCc2cc3c(-c4ccc(Cl)cc4)c(C4CC4)[nH]c3nn2)nn1 [Example 117, 1-{4-[5-(4-chlorophenyl)-6-cyclopropyl-7H-pyrrolo[2,3-c]pyridazin-3-yl]butyl}-N-(pyridin-2-ylmethyl)-1H-1,2,3-triazole-4-carboxamide] |
| < 100 | 100 to 500 | O=C(NCc1cc(OC(F)(F)F)ccc1F)c1cn(CCCCc2cc3cc(-c4ccccc4F)[nH]c3nn2)nn1 [Example 205, N-{[2-fluoro-5-(trifluoromethoxy)phenyl]methyl}-1-(4-[6-(2-fluorophenyl)-7H-pyrrolo[2,3-c]pyridazin-3-yl]butyl)-1H-1,2,3-triazole-4-carboxamide] |
| 100 to 500 | > 5000 | O=C(NC1COC1)c1nnc(CCCCc2cc3cc(Cc4ccccc4)[nH]c3nn2)s1 [Example 72, 5-(4-{6-benzyl-7H-pyrrolo[2,3-c]pyridazin-3-yl}butyl)-N-(oxetan-3-yl)-1,3,4-thiadiazole-2-carboxamide] |
| < 100 | 500 to 5000 | CS(=O)(=O)c1cccc(-c2c(C3CC3)[nH]c3nnc(CCCCn4cc(C(=O)NCc5ccccn5)nn4)cc23)c1 [Example 136, 1-{4-[6-cyclopropyl-5-(3-methanesulfonylphenyl)-7H-pyrrolo[2,3-c]pyridazin-3-yl]butyl}-N-(pyridin-2-ylmethyl)-1H-1,2,3-triazole-4-carboxamide] |
| 100 to 500 | 500 to 5000 | O=C(Nc1nnc(CCCCc2cc3cc[nH]c3nn2)s1)[C@@H](O)c1ccccc1 [Example 66, (2S)-2-hydroxy-2-phenyl-N-[5-(4-{7H-pyrrolo[2,3-c]pyridazin-3-yl}butyl)-1,3,4-thiadiazol-2-yl]acetamide] |
| < 100 | 100 to 500 | O=C(Cc1ccccc1)Nc1nnc(CCCCc2cc3cc(Cc4ccccc4)[nH]c3nn2)s1 [Example 4, N-(5-(4-(6-benzyl-7H-pyrrolo[2,3-c]pyridazin-3-yl)butyl)-1,3,4-thiadiazol-2-yl)-2-phenylacetamide] |
